Values of other authors, collected in US11608326B2, “Synthetic receptors for ionophoric compounds” (Universiteit Gent, priority 2018, dated 2023).

Columns and labels:
[1] = tested on: human neural (Paju) cells
[2] = tested on: human leukemia cells; details: 3 μM, overnight incubation

beauvericin
concentration sufficient to cause depolarization [1]: low μM concentrations
drop of survival rate [2]: 80%
